Test results as given in patent US20210346321A1, “PHARMACEUTICAL COMPOSITION CONTAINING ALKYL CARBAMOYL NAPHTHALENYLOXY OCTENOYL HYDROXYAMIDE PHOSPHATE, TARTRATE OR COMBINATION THEREOF, AND PREPARATION METHOD THEREFOR” (CRYSTALGENOMICS, INC., priority 2018, published 2021).
Entries after “also recorded” stand apart in the source; their conditions may differ.

Legend:
Assay type in all cases: physicochemical
[1] = Comparison of the amount of change in related substances of the compounds; conditions: for increase in the amount of related substances: open state at room temperature for 3 days
Description: In order to evaluate the amount of change in the related substances of Example 12, the composition of Example 12 was placed in an accelerated condition chamber ([…], 75%±5), and the amount of related substance produced was measured for 6 months. For the measurement of the amount of related substances produced, the composition of Example 12 was pretreated and then tested according to the liquid chromatography method of the general test method of the Korean Pharmacopoeia to determine peak areas of the produced related substances (individual related substance 0.2% or less, total related substances 1.0%, measuring equipment: HPLC LC-2030C_Shimadzu). In Table 12, the amount of related substances produced is expressed in %. In addition, FIG. 3 is a result of measuring the related substance at 28 minutes under the accelerated condition, and the reference value is 0.2%.
In order to evaluate the amount of change in related substances of the compounds according to Comparative Examples and Examples, each compound was stored in an open state at room temperature for 3 days, and then the amount of related substances produced was measured in the same manner as in Experimental Example 3 and the results are shown in FIG. 5.
In addition, changes in the amount of related substances produced according to temperature and storage period are shown in FIGS. 6 and 7 for the compounds according to Examples 13 and 14.

[2] = Evaluation of change in appearance on storage; conditions: for change in appearance: open state storage, all conditions
From the text: (§1) In order to evaluate the stability of the compound according to the present invention, an alkylcarbamoyl naphthalenyloxy octenoyl hydroxyamide compound was used in Comparative Example 1, an alkyl carbamoyl naphthalenyloxy octenoyl hydroxyamide tartrate was used in Example 13 and alkylcarbamoyl naphthalenyloxy octenoyl hydroxyamide phosphate was used in Example 14. As alkylcarbamoyl naphthalenyloxy octenoyl hydroxyamide, (E)-N1-(3-(dimethylamino)propyl)-N8-hydroxy-2-((naphthalen-1-yloxy)methyl)-2-octenediamide compound was used. Evaluation of stability was conducted by observing the change with storage time under room temperature (20-25° C., 50% or less), long-term (25±2° C. and 60±5% RH), accelerated (40±2° C. and 75±5% RH) and severe (60±2° C.) conditions.
In order to evaluate the change in appearance of the compounds according to Comparative Examples and Examples, each compound was stored in an open state according to the conditions shown in Table 13 below, and then the change in appearance was observed.

[3] = Evaluation of change in content on storage (HPLC)
From the text: as §1
In order to evaluate the change in the content of the compounds according to Examples, each compound was stored in an open state or in a polyethylene bottle packaging (silica gel added) to measure the change in content. For measurement of content, compounds of Comparative Examples and Examples were pretreated and then the solutions were tested according to the liquid chromatography method of the general test methods of the Korean Pharmacopoeia to determine the peak area of CG200745 (measurement equipment: HPLC LC-2030C_Shimadzu). The content standard is to contain CG200745 in an amount corresponding to 95.0-105.5% of the indicated amount according to the standards and test methods of the present applicant.
The results measured in the open state are shown in Table 14 below, and the results measured in the bottle packaging are shown in Table 15 below.

[4] = Evaluation of change in moisture content (Karl Fischer); conditions: open state, room temperature (20 to 25° C., 50% or less), after 3 days versus initial
From the text: as §1
In order to evaluate the change in moisture content, the compounds according to Examples and Comparative Examples were stored in an open state at room temperature (20 to 25° C., 50% or less), and the change was measured by the difference between the initial moisture content and the moisture content after 3 days, and the results are shown in FIG. 4. Moisture content was measured according to the volumetric titration method among methods of determining the water content (Karl Fischer method) of the general test methods of the Korean Pharmacopoeia (measurement equipment: 701KF_Metrohm).

[5] = open state, 1 day, Accelerated (40±2° C., 75±5% RH)
[6] = open state, 1 day, Long-term (25±2° C., 60±5% RH)
[7] = open state, 7 days, Room temperature (20-25° C., 50% or less)
[8] = bottle packaging, 1 day, Accelerated
[9] = bottle packaging, 1 day, Long-term
[10] = bottle packaging, 1 day, Room temperature
[11] = bottle packaging, 1 day, Severe
[12] = bottle packaging, 3 days, Accelerated
[13] = bottle packaging, 3 days, Long-term
[14] = bottle packaging, 3 days, Room temperature
[15] = bottle packaging, 7 days, Accelerated
[16] = bottle packaging, 7 days, Long-term
[17] = bottle packaging, 7 days, Room temperature
[18] = polyethylene bottle packaging (silica gel added), Initial

For `CN(C)CCCNC(=O)/C(=C/CCCCC(=O)NO)COc1cccc2ccccc12` [Example 13, (E)-N1-(3-(dimethylamino)propyl)-N8-hydroxy-2-((naphthalen-1-yloxy)methyl)-2-octenediamide], the “amount of related substances produced according to storage temperature” value ([1]; FIG. 6) was “maintained within a certain range at a relatively low temperature”, the “increase in the amount of related substances” value (“increase in the amount” for short) [1] was 0.05% and the appearance ([2]; Initial, listed as Ex. 13) was “Powder”. The appearance [2, 5] was “Gel-like”, the appearance [2, 6] was “Gel-like” and the appearance ([2]; open state, 1 day, Room temperature (20-25° C., 50% or less), listed as Ex. 13) was “Powder”. For the same molecule, the appearance ([2]; open state, 1 day, Severe (60±2° C.), listed as Ex. 13) was “Powder”, the appearance [2, 7] was “Powder” and the appearance ([2]; open state, 7 days, Severe (60±2° C.), listed as Ex. 13) was “Powder; also recorded: Discoloration”. For the same molecule, the “content of CG200745” value ([3]; open state, 1 day, Accelerated, listed as Ex. 13) was 104.6%, the “content of CG200745” value ([3]; open state, 1 day, Long-term, listed as Ex. 13) was 104.3% and the “content of CG200745” value ([3]; open state, 1 day, Room temperature, listed as Ex. 13) was 103.4%. For the same molecule, the “content of CG200745” value ([3]; open state, 1 day, Severe, listed as Ex. 13) was 103.3%, the “content of CG200745” value ([3]; open state, 3 days, Accelerated) was 102.3% and the “content of CG200745” value ([3]; open state, 3 days, Long-term) was 102.6%. The “content of CG200745” value ([3]; open state, 3 days, Room temperature, listed as Ex. 13) was 102.6%, the “content of CG200745” value ([3]; open state, 3 days, Severe, listed as Ex. 13) was 99.6% and the “content of CG200745” value ([3]; open state, 7 days, Accelerated) was 100.7%. The “content of CG200745” value ([3]; open state, 7 days, Long-term) was 99.4%, the “content of CG200745” value ([3]; open state, 7 days, Room temperature, listed as Ex. 13) was 100.0% and the “content of CG200745” value ([3]; open state, 7 days, Severe, listed as Ex. 13) was 102.2%. The “content of CG200745” value ([3]; open state, Initial, listed as Ex. 13) was 99.5%, the “content on storage” value ([3]; under the room temperature condition) was “maintained at a certain level” and the “increase in moisture content” value [4] was 2%.
With `CN(C)CCCNC(=O)/C(=C/CCCCC(=O)NO)COc1cccc2ccccc12` [Comparative Example 1, (E)-N1-(3-(dimethylamino)propyl)-N8-hydroxy-2-((naphthalen-1-yloxy)methyl)-2-octenediamide, reference compound] the “increase in the amount” value [1] was “about 10%”, the appearance ([2]; Initial, listed as Comp. Ex. 1) was “Foam” and the “change in appearance” value [2] was “changed from a foam to a highly viscous liquid or gel”. For the same molecule, the appearance [2, 5] was “Gel-like”, the appearance [2, 6] was “Gel-like” and the appearance ([2]; open state, 1 day, Room temperature (20-25° C., 50% or less), listed as Comp. Ex. 1) was “Gel-like”. For the same molecule, the appearance ([2]; open state, 1 day, Severe (60±2° C.), listed as Comp. Ex. 1) was “Gel-like”, the “content of CG200745” value [3, 8] was 89.1% and the “content of CG200745” value [3, 9] was 99.1%. The “content of CG200745” value [3, 10] was 99.3%, the “content of CG200745” value [3, 11] was 101.2% and the “content of CG200745” value [3, 12] was 84.0%. The “content of CG200745” value [3, 13] was 84.0%, the “content of CG200745” value [3, 14] was 99.5% and the “content of CG200745” value [3, 15] was 78.5%. The “content of CG200745” value [3, 16] was 78.5%, the “content of CG200745” value [3, 17] was 99.4% and the “content of CG200745” value ([3]; open state, 1 day, Accelerated, listed as Comp. Ex. 1) was 92.3%. The “content of CG200745” value ([3]; open state, 1 day, Long-term, listed as Comp. Ex. 1) was 99.9%, the “content of CG200745” value ([3]; open state, 1 day, Room temperature, listed as Comp. Ex. 1) was 101.0% and the “content of CG200745” value ([3]; open state, 1 day, Severe, listed as Comp. Ex. 1) was 101.1%. For the same molecule, the “content of CG200745” value ([3]; open state, 3 days, Room temperature, listed as Comp. Ex. 1) was 101.9%, the “content of CG200745” value ([3]; open state, 3 days, Severe, listed as Comp. Ex. 1) was 97.2% and the “content of CG200745” value ([3]; open state, 7 days, Room temperature, listed as Comp. Ex. 1) was 100.1%. For the same molecule, the “content of CG200745” value ([3]; open state, 7 days, Severe, listed as Comp. Ex. 1) was 89.1%, the “content of CG200745” value ([3]; open state, Initial, listed as Comp. Ex. 1) was 98.9% and the “content of CG200745” value [3, 18] was 98.9%. For the same molecule, the “increase in moisture content” value [4] was “about 3%”.
In the case of `CN(C)CCCNC(=O)/C(=C/CCCCC(=O)NO)COc1cccc2ccccc12.O=P(O)(O)O` [Example 14, (E)-N1-(3-(dimethylamino)propyl)-N8-hydroxy-2-((naphthalen-1-yloxy)methyl)-2-octenediamide phosphate], the “increase in the amount” value [1] is reported as 0.02%, the “amount of related substances produced” value ([1]; regardless of the storage temperature and period (FIG. 7)) is reported as “about 0.22%” and the appearance ([2]; Initial) is reported as “Powder”. For the same molecule, the “change in appearance” value [2] was “remained constant regardless of the condition”, the appearance [2, 5] was “Powder” and the appearance [2, 6] was “Powder”. The appearance ([2]; open state, 1 day, Room temperature (20-25° C., 50% or less)) was “Powder”, the appearance ([2]; open state, 1 day, Severe (60±2° C.)) was “Powder” and the appearance ([2]; open state, 7 days, Accelerated (40±2° C., 75±5% RH)) was “Powder”. The appearance ([2]; open state, 7 days, Long-term (25±2° C., 60±5% RH)) was “Powder”, the appearance [2, 7] was “Powder” and the appearance ([2]; open state, 7 days, Severe (60±2° C.)) was “Powder”. For the same molecule, the “content on storage” value ([3]; all packaging conditions, heating, humidity) was “kept constant regardless of packaging conditions, heating, and humidity”, the “content of CG200745” value [3, 8] was 101.2% and the “content of CG200745” value [3, 9] was 103.5%. The “content of CG200745” value [3, 10] was 98.6%, the “content of CG200745” value [3, 11] was 101.6% and the “content of CG200745” value [3, 12] was 100.1%. For the same molecule, the “content of CG200745” value [3, 13] was 99.9%, the “content of CG200745” value [3, 14] was 98.8% and the “content of CG200745” value ([3]; bottle packaging, 3 days, Severe) was 100.4%. For the same molecule, the “content of CG200745” value [3, 15] was 101.1%, the “content of CG200745” value [3, 16] was 100.9% and the “content of CG200745” value [3, 17] was 99.3%. The “content of CG200745” value ([3]; bottle packaging, 7 days, Severe) was 101.4%, the “content of CG200745” value [3, 18] was 99.5% and the “increase in moisture content” value [4] was “about 0.01%”.
